Test results from publication PMC3355305, “Localized Dimerization and Nucleoid Binding Drive Gradient Formation by the Bacterial Cell Division Inhibitor MipZ” (Molecular Cell, 2012).
Residue numbers refer to the chain shown, from its start.

What was measured:
[1] = target: T1, D42A (Caulobacter vibrioides, UniProt Q9A6C9, D42A); test: Stopped-flow FRET transient kinetics of mant-ADP binding to MipZ (excitation 297 nm, 360 nm cut-off) at 30 °C in 50 mM Hepes/NaOH pH 7.2, 50 mM KCl, 10 mM MgCl2, 1 mM β-mercaptoethanol; KD calculated as koff/kon, with koff from displacement by excess unlabeled nucleotide.
T1 construct: gene mipZ; hexahistidine-tagged, full length, overproduced in E. coli Rosetta2(DE3)pLysS
T1 sequence (Q9A6C9 1-278 D42A): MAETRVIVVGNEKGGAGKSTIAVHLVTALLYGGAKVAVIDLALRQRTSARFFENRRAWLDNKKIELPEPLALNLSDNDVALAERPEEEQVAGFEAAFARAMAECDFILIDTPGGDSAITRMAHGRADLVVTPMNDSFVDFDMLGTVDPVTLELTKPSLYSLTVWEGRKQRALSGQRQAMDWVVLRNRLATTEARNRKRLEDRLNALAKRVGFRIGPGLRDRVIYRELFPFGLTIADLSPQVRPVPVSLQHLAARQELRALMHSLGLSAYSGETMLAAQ
Description: (§1) Once released from the dimeric complex, MipZ monomers must undergo nucleotide exchange to enter the next reaction cycle (Figure 2A). To clarify the requirements for the exchange reaction, we studied the nucleotide binding kinetics of MipZ by monitoring its interaction with methylanthraniloyl (mant)-labeled ADP and ATP analogs (Figure S3). Since the mant group blocks dimer formation, our measurements specifically focused on the initial nucleotide-binding step without interference from subsequent reactions.
(§2) Figure S3. Steady-state and transient kinetic analysis of nucleotide binding to MipZ, Related to Table 2.
(§3) (A) Fluorescence emission spectra of mant-ATP. MipZ (1 µM) and/or mant-ATP (60 µM) were mixed in buffer BC containing no (+ Mg2+) or 10 mM (- Mg2+) EDTA. Emission spectra were recorded in a PC1 photon-counting spectrofluorimeter (ISS) using fluorescence resonance energy transfer (FRET) and an excitation wavelength of 290 nm.
(§4) (B) Association of MipZ with mant nucleotides.
(§5) (data not shown), necessitating the use of ADP and ATP analogues that carried a fluorescent methylanthraniloyl (mant) group attached to the 2'- or 3'-hydroxy group of the ribose moiety. Due to the bulkiness of the mant group and a critical role of these hydroxy groups in MipZ dimerization, the modified nucleotides are predicted to block dimer formation, consistent with their failure to be hydrolyzed by MipZ or mediate MipZ self-association in the SPR assay (data not shown). This circumstance allowed us to focus the measurements on the initial nucleotide binding step without interference from subsequent reactions.
(§6) Interaction of the mant group with the protein surface led to a marked increase in fluorescence (panel A). Consistent with the easy accessibility of the nucleotide-binding site and the lack of major conformational changes, the transients recorded after rapid mixing of MipZ with mant nucleotides could be fitted to single-exponential equations, indicating single-step binding reactions.
(§7) Shown is a typical curve representing the change in mant fluorescence upon binding of mant-ATP (30 µM) to MipZ (1 µM).
(§8) Fitting of the data yielded a pseudo-first order rate constant (kobs) of 4.7 s-1. […]
(§9) determining the second-order rate constant of the association reaction. Shown is a representative graph in which the kobs values measured for mant-ATP were plotted against the corresponding mant-ATP concentrations. […]
(§10) (D) Dissociation of mant nucleotides from MipZ. In order to determine the dissociation rate constants (koff), we monitored the displacement of mant-labeled nucleotides from MipZ by an excess of unlabeled nucleotide. […] Shown is a typical curve representing the change in mant fluorescence upon dissociation of mant-ATP (30 µM) from MipZ (1 µM) in the presence of 2 mM ATP. […]

[2] = target: T2, G14V (Caulobacter vibrioides, UniProt Q9A6C9, G14V); test: as above
T2 construct: gene mipZ; hexahistidine-tagged, full length, overproduced in E. coli Rosetta2(DE3)pLysS; constitutively monomeric
T2 sequence (Q9A6C9 1-278 G14V): T1 sequence (Q9A6C9 1-278 D42A) with G14V, A42D
Description: as §1, §2, §3, §4, §5, §6, §7, §8, §9, §10

[3] = target: T3, K13A (Caulobacter vibrioides, UniProt Q9A6C9, K13A); test: as above
T3 construct: gene mipZ; hexahistidine-tagged, full length, overproduced in E. coli Rosetta2(DE3)pLysS; constitutively monomeric
T3 sequence (Q9A6C9 1-278 K13A): T1 sequence (Q9A6C9 1-278 D42A) with K13A, A42D
Description: as §1, §2, §3, §4, §5, §6, §7, §8, §9, §10

[4] = target: T4, WT (MipZ) (Caulobacter vibrioides, UniProt Q9A6C9); test: as above
T4 construct: hexahistidine-tagged, full length, overproduced in E. coli Rosetta2(DE3)pLysS
T4 sequence (Q9A6C9 1-278): T1 sequence (Q9A6C9 1-278 D42A) with A42D
Description: as §1, §2, §3, §4, §5, §6, §7, §8, §9, §10

[5] = target: T1, D42A; test: Stopped-flow FRET transient kinetics of mant-ATP binding to MipZ (excitation 297 nm, 360 nm cut-off) at 30 °C in 50 mM Hepes/NaOH pH 7.2, 50 mM KCl, 10 mM MgCl2, 1 mM β-mercaptoethanol; KD calculated as koff/kon, with koff from displacement by excess unlabeled nucleotide.
Description: as §1, §2, §3, §4, §5, §6, §7
(§11) Fitting of the data yielded a pseudo-first order rate constant (kobs) of 4.7 s-1.
(§12) (C) Determination of the second-order association rate constants (kon). The pseudo-first order rate constants for the association of […]
(§13) determining the second-order rate constant of the association reaction. Shown is a representative graph in which the kobs values measured for mant-ATP were plotted against the corresponding mant-ATP concentrations. Fitting of the data to the linear function kobs=kon[mant-ATP]+koff yielded a value of 6.8 x 104 M-1s-1 for kon.
(§14) (D) Dissociation of mant nucleotides from MipZ. In order to determine the dissociation rate constants (koff), we monitored the displacement of mant-labeled nucleotides from MipZ by an excess of unlabeled nucleotide. All transients obtained could be fitted to single-exponential functions. Shown is a typical curve representing the change in mant fluorescence upon dissociation of mant-ATP (30 µM) from MipZ (1 µM) in the presence of 2 mM ATP. […]

[6] = target: T2, G14V; test: as above
Description: as §1, §2, §3, §4, §5, §6, §7, §11, §12, §13, §14

[7] = target: T3, K13A; test: as above
Description: as §1, §2, §3, §4, §5, §6, §7, §11, §12, §13, §14

[8] = target: T5, K18Q (Caulobacter vibrioides, UniProt Q9A6C9, K18Q); test: as above
T5 construct: gene mipZ; hexahistidine-tagged, full length, overproduced in E. coli Rosetta2(DE3)pLysS; constitutively monomeric
T5 sequence (Q9A6C9 1-278 K18Q): T1 sequence (Q9A6C9 1-278 D42A) with K18Q, A42D
Description: as §1, §2, §3, §4, §5, §6, §7, §11, §12, §13, §14

[9] = target: T4, WT (MipZ); test: as above
Description: as §1, §2, §3, §4, §5, §6, §7, §11, §12, §13, §14

| Structure (SMILES) | Kd [1] | Kd [2] | Kd [3] | Kd [4] | Kd [5] | Kd [6] | Kd [7] | Kd [8] | Kd [9] |
| --- | --- | --- | --- | --- | --- | --- | --- | --- | --- |
| CNc1ccccc1C(=O)O[C@H]1[C@@H](O)[C@H](n2cnc3c(N)ncnc32)O[C@@H]1COP(=O)(O)OP(=O)(O)O [mant-ADP, 2'/3'-O-methylanthraniloyl-ADP (methylanthraniloyl-labeled ADP)] | 69 µM | 4.5 µM | 41 µM | 26 µM | – | – | – | – | – |
| CNc1ccccc1C(=O)O[C@H]1[C@@H](O)[C@H](n2cnc3c(N)ncnc32)O[C@@H]1CO[P@@](=O)(O)O[P@](=O)(O)OP(=O)(O)O [mant-ATP, 2'/3'-O-methylanthraniloyl-ATP (methylanthraniloyl-labeled ATP)] | – | – | – | – | 58 µM | 1.3 µM | 38 µM | 121 µM | 31 µM |
